According to patent publication US7993668B2, “Nutrient composition and composition for prevention/mitigation of digestive tract depression” (Ajinomoto Co., Inc., priority 2004, dated 2011):

Test system: male rat
Experiment: Onset of diarrhea due to intragastric administration of an elemental diet in fasted rats (stool state ranked 1-4)
Type: in vivo
Excerpt: According to a conventional method, under pentobarbital anesthesia, a catheter for elemental diet administration was inserted by operation in the stomach of a male rat (body weight about 270 g), and a recovery period of one week was given. For breeding, a regular rat feed and tap water were given, and free intake was allowed. After confirmation of recovery, the rat was fasted three nights to induce lower gastrointestinal function. The fasting schedule on the day before operation, the operation day and the day after operation in the case of surgery patients was imitated.
On the day of the test, the rats were divided into 3 groups, each rat was moved to a separate observation cage, and the onset of diarrhea due to the administration of an elemental diet shown below was observed. First, one pack (80 g) of elemental diet having the composition shown in Table 1 was dissolved in water (300 cc) and prepared to show 1 kcal/cc, which was used as elemental diet 1. Three groups of an elemental diet 1 administration group as a control, an elemental diet 2 administration group, to which 1.0 w/v % (0.88 w/v % as free glutamic acid) of sodium glutamate (MSG) was added, and an elemental diet 3 administration group, to which sodium chloride (0.35 w/v %) was added, were compared. Each test elemental diet was administered using an electric pump via the catheter inserted into the stomach. The administration was started from 10:30 AM and intermittently administered 4 times per hr at 7 mL/hr. Each test elemental diet administered to one rat was 28 mL in total. The state of stool was observed from the start of the administration until 10:30 AM the next morning and, based on the severity of the symptom, ranked in 4 levels of 1. normal stool or no stool, 2, soft stool (shape was maintained), 3, muddy stool (no shape) and 4, watery stool.
A method according to Example 1 was employed. […] Each test elemental diet was administered using an electric pump via the catheter inserted into the stomach.
A method according to Example 1 was employed. Three groups of an elemental diet 1 administration group having the composition shown in a separate table as a control, an elemental diet 6 administration group, to which 0.04 w/v % (0.036 w/v % as free guanylic acid) of sodium guanylate (GMP) was added, and an elemental diet 7 administration group, to which 0.20 w/v % (0.18 w/v % as free guanylic acid) was added, were compared. Each test elemental diet was administered using an electric pump via the catheter inserted into the stomach.

[1] = Example 1, elemental diet 3 with 0.35 w/v % sodium chloride, out of 11 cases
[2] = Example 3, elemental diet 6 with 0.04 w/v % sodium guanylate, out of 13 cases
[3] = Example 3, elemental diet 7 with 0.20 w/v % sodium guanylate, out of 13 cases

In the case of `[Cl-].[Na+]` [sodium chloride, reference compound], the “rank 1 observed” value [1] is reported as 1 case and the “rank 3 observed” value [1] is reported as 6 cases.
`N[C@@H](CCC(=O)[O-])C(=O)[O-].[Na+].[Na+]` [sodium glutamate] was tested, and the “improvement of diarrhea (stool rank) vs non-addition group” value (Example 1, 1.0 w/v % sodium glutamate, Kruskal-Wallis, p<0.05) was “significant improvement effect”, the “rank 2 soft stool observed” value (po) was 1 case and the “rank 3 muddy stool observed” value (po) was 2 cases.
With `Nc1nc2c(ncn2[C@@H]2O[C@H](COP(=O)([O-])[O-])[C@@H](O)[C@H]2O)c(=O)[nH]1.[Na+].[Na+]` [sodium guanylate] the “rank 1 normal stool or no stool observed” value (Example 3, elemental diet 6 with 0.04 w/v % sodium guanylate (0.036 w/v % as free guanylic acid), out of 13 cases) was 3 cases, the “rank 2 soft stool observed” value [2] was 1 case and the “rank 4 watery stool observed” value [2] was 9 cases. The “rank 1 normal stool or no stool observed” value (Example 3, elemental diet 7 with 0.20 w/v % sodium guanylate (0.18 w/v % as free guanylic acid), out of 13 cases) was 3 cases, the “rank 2 soft stool observed” value [3] was 1 case and the “rank 4 watery stool observed” value [3] was 9 cases. For the same molecule, the “diarrhea symptom-improving effect by the addition” value (Example 3, sodium guanylate 0.04 and 0.20 w/v % addition groups vs non-addition group) was “diarrhea symptom-improving effect was considered to be observed”.
